# Values quoted from earlier work in article PMC9298070, “Lack of a Clinically Meaningful Drug Interaction Between the HIV‐1 Antiretroviral Agents Islatravir, Dolutegravir, and Tenofovir Disoproxil Fumarate” (Clinical Pharmacology in Drug Development, 2021).
# Tested on: uridine diphosphate glucuronosyltransferase 1A1
# Parameters: method as in PMID 34452431
# Settings: at concentrations up to 100 μM; cited from earlier work
smiles,measurement,value
"C#C[C@]1(CO)O[C@@H](n2cnc3c(N)nc(F)nc32)C[C@@H]1O [Islatravir, 4′‐Ethynyl‐2‐fluoro‐2′‐deoxyadenosine]",inhibitory effects on uridine diphosphate glucuronosyltransferase 1A1,No inhibitory effects
